{"source": "paper PMC12704139", "about": "“(±)-Rutacycoumarins A and B: two pairs of unprecedented coumarin enantiomers from the aerial part of Ruta graveolens L. and chemically synthesized” (Pharmaceutical Biology, 2025)", "key": {"hMAO-A": {"tested_on": "hMAO-A", "parameters": "method as in Seong et al. [2019]", "details": "ref Seong et al. [2019], cited from earlier work; for isoform selectivity (in words): hMAO-A versus hMAO-B"}, "MAO-A": {"tested_on": "MAO-A", "parameters": "method as in Kozioł et al. [2020]", "details": "6.17 μM; ref Kozioł et al. [2020]; cited from earlier work"}, "human MAO-B": {"tested_on": "human MAO-B", "parameters": "method as in Kozioł et al. [2020]", "details": "6.17 μM; ref Kozioł et al. [2020]; cited from earlier work"}, "MAO": {"tested_on": "MAO", "parameters": "method as in Kozioł et al. [2020]", "details": "reference inhibitors at ∼3–5 μM; ref Kozioł et al. [2020]; cited from earlier work"}, "LPS-induced HepG2 cells [1]": {"tested_on": "LPS-induced HepG2 cells", "assay": "IL-4, IL-10 and TNF-α in supernatant of LPS-induced HepG2 cells (ELISA)", "assay_type": "cell-based, Homo sapiens", "details": "for LPS-induced inflammatory response (pro-inflammatory cytokines): HepG2, LPS", "procedure": "(§1) An LPS-induced hepatocyte injury model was established in HepG2 cells by treatment with 100 ng/mL LPS, using silymarin as a positive control. After treatment with test compounds at concentrations of 10, 20, and 40 μM, the cell culture supernatant was collected and centrifuged at 1000 × g for 15 min at 4 °C. The levels of alanine aminotransferase (ALT) and aspartate aminotransferase (AST) in the supernatant were quantified using commercial assay kits according to the manufacturer’s instructions. Absorbance was measured at 510 nm using a microplate reader, and results are expressed in units per liter (U/L). Additionally, the concentrations of interleukin-4 (IL-4), interleukin-10 (IL-10), and tumor necrosis factor-α (TNF-α) in the supernatant were determined by enzyme-linked immunosorbent assay (ELISA) using corresponding commercial kits. All procedures were performed in strict accordance with the manufacturer’s protocols. Cytokine levels are reported in picograms per milliliter (pg/mL), as calculated from the respective standard curves.\nThe cell culture supernatant was collected and separated by centrifugation at 4°C and 1000 rpm for 15 minutes. Levels of IL-4, IL-10, and TNF-α in the supernatant were determined using enzyme-linked immunosorbent assay (ELISA), strictly following the manufacturer’s protocols provided with the corresponding commercial ELISA kits. These values were quantified in picograms per milliliter (pg/mL) based on the standard curves generated."}, "recombinant human MAO-B": {"target": "T1, recombinant human MAO-B (Homo sapiens, UniProt P27338)", "T1 construct": "purchased Active Motif 31503", "T1 sequence (P27338 1-520)": "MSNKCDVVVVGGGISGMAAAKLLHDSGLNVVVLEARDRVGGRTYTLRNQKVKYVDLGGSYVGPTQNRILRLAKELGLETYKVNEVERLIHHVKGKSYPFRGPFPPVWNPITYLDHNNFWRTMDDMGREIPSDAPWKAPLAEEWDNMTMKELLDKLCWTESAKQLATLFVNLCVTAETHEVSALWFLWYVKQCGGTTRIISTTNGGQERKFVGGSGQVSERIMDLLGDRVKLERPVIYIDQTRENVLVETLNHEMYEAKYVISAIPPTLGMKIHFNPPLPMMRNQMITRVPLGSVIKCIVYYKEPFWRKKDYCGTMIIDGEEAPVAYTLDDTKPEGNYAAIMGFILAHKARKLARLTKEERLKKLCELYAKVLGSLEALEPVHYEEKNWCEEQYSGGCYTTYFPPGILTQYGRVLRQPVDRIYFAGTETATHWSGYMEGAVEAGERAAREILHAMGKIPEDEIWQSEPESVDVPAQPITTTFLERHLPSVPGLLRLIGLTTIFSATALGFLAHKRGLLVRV", "assay": "Recombinant human MAO-B enzyme inhibition assay", "assay_type": "biochemical", "method": "All compounds were tested with technical replicates. Compounds (100× final concentration) in 384-well source plates were dispensed (200 nL per well) into assay plates. Min/Max control wells received 200 µL of 100% DMSO. All wells except the Min controls were supplemented with 10 μL of 10 nM MAO-B (Min controls received buffer instead). Plates were centrifuged at 1000 × g for 1 min and incubated at 25 °C for 15 min. Then, 10 μL of 0.5 μM substrate was added to each well. After further centrifugation, the plates were protected from light and incubated for 60 min. The reaction was terminated by adding 20 μL of stop solution, followed by centrifugation and a 20-min equilibration period. Fluorescence was measured using an EnVision microplate reader. The inhibition percentage was calculated as follows: Inhibition (%) = [signal (max)− signal (sample)]/[signal (max) − signal (min)] × 100. Dose–response curves were generated by plotting the logarithm of compound concentration (X-axis) against the percentage inhibition (Y-axis). Curve fitting was performed in GraphPad Prism 8 using the ‘log(inhibitor) vs. response -Variable slope’ model to determine the IC50 values for MAO-B inhibition."}, "LPS-induced HepG2 cells [2]": {"tested_on": "LPS-induced HepG2 cells", "assay": "ALT and AST in supernatant of LPS-induced HepG2 cells", "assay_type": "cell-based, Homo sapiens", "details": "HepG2, 100 ng/mL LPS, compounds 10, 20, 40 μM; p < 0.01 vs. model", "procedure": "as §1\nSilymarin was used as a positive control. The supernatant of HepG2 cells was collected from different experimental groups and separated by centrifugation (4 °C, 1000 rpm, 15 minutes). The levels of ALT and AST in the supernatant were determined following the manufacturer's instructions provided with the commercial assay kits. The optical density (OD) values of each well were measured at a wavelength of 510 nm using a microplate reader. These values are expressed in units per liter (U/L) or millimoles per liter (mmol/L)."}, "hMAO": {"tested_on": "hMAO", "parameters": "method as in Seong et al. [2019]", "details": "enzyme kinetic studies; ref Seong et al. [2019]; cited from earlier work"}, "human MAO-B (hMAO-B)": {"tested_on": "human MAO-B (hMAO-B)", "parameters": "method as in Dhiman et al. [2018]", "details": "ref Dhiman et al. [2018], cited from earlier work"}, "liver injury": {"tested_on": "liver injury", "parameters": "method as in He et al. [2024]", "details": "suppressing TNF-α/JAK1/STAT3 signaling while enhancing IL-4/IL-10 production; ref He et al. [2024]; cited from earlier work"}, "hMAO-B": {"tested_on": "hMAO-B", "parameters": "method as in Seong et al. [2019]", "details": "ref Seong et al. [2019]; cited from earlier work"}, "[3]": {"details": "HepG2 supernatant, LPS, 10–40 μM, ELISA"}}}
{"molecule": "COc1cc2ccc(=O)oc2cc1O", "note": "[scopoletin]", "values": [{"measurement": "isoform selectivity (in words)", "setting": "hMAO-A", "result": "selectivity for hMAO-A versus hMAO-B"}]}
{"molecule": "C=CC(C)(C)c1cc2cc3c(cc2oc1=O)OC(C(C)(C)OC(C)=O)C3", "note": "(stereo not shown) [rutamarin]", "values": [{"measurement": "inhibition of MAO-A", "setting": "MAO-A", "result": 25.15, "unit": "%"}, {"measurement": "inhibition rate of human MAO-B", "setting": "human MAO-B", "result": 95.26, "unit": "%"}]}
{"molecule": "C#CCN(C)[C@H](C)Cc1ccccc1", "note": "[selegiline]", "values": [{"measurement": "MAO inhibition", "setting": "MAO", "result": "> 99", "unit": "%"}]}
{"molecule": "O=c1ccc2ccc(O)cc2o1", "note": "[umbelliferone]", "values": [{"measurement": "isoform selectivity (in words)", "setting": "hMAO-A", "result": "selectivity for hMAO-A versus hMAO-B"}]}
{"molecule": "COc1cc2cc(C3CC3(C)C)c(=O)oc2cc1O", "note": "(racemic) [(±)-2, (±)-Rutacycoumarin B]", "values": [{"measurement": "LPS-induced inflammatory response (pro-inflammatory cytokines)", "setting": "LPS-induced HepG2 cells [1]", "result": "significant suppression"}, {"measurement": "IL-4 level", "setting": "LPS-induced HepG2 cells [1]; [3]", "result": "dose-dependently restored"}, {"measurement": "IL-10 level", "setting": "LPS-induced HepG2 cells [1]; [3]", "result": "dose-dependently restored"}, {"measurement": "TNF-α expression", "setting": "LPS-induced HepG2 cells [1]; [3]", "result": "suppressed"}, {"measurement": "MAO-B inhibition (in words)", "setting": "recombinant human MAO-B", "result": "potently inhibited"}, {"measurement": "LPS-elevated ALT level", "setting": "LPS-induced HepG2 cells [2]", "result": "significant suppression"}, {"measurement": "LPS-elevated AST level", "setting": "LPS-induced HepG2 cells [2]", "result": "significant suppression"}]}
{"molecule": "O=C(O)c1cc2ccc(=O)oc2cc1O", "note": "[umbelliferone-6-carboxylic acid]", "values": [{"measurement": "isoform selectivity (in words)", "setting": "hMAO-A", "result": "selectivity for hMAO-A versus hMAO-B"}]}
{"molecule": "O=Cc1c(O)ccc2ccc(=O)oc12", "note": "[8-formyl umbelliferone]", "values": [{"measurement": "isoform selectivity (in words)", "setting": "hMAO-A", "result": "selectivity for hMAO-A versus hMAO-B"}, {"measurement": "mode of hMAO inhibition", "setting": "hMAO", "result": "competitive"}]}
{"molecule": "O=c1ccc2cc(O)c(O)cc2o1", "note": "[esculetin]", "values": [{"measurement": "isoform selectivity (in words)", "setting": "hMAO-A", "result": "selectivity for hMAO-A versus hMAO-B"}]}
{"molecule": "O=C(Oc1ccc2ccc(=O)oc2c1)C(O)c1ccccc1", "note": "(stereo not shown) [2-oxo-2H-chromen-7-yl 2-hydroxy-2-phenylacetate]", "values": [{"measurement": "selectivity index", "setting": "human MAO-B (hMAO-B); hMAO-B", "result": 8.55}, {"measurement": "IC50", "setting": "human MAO-B (hMAO-B)", "result": "10.32 ± 0.044", "unit": "µM"}]}
{"molecule": "CC1(C)CC1c1cc2ccc(O)cc2oc1=O", "note": "(racemic) [(±)-1, (±)-Rutacycoumarin A]", "values": [{"measurement": "LPS-induced inflammatory response (pro-inflammatory cytokines)", "setting": "LPS-induced HepG2 cells [1]", "result": "significant suppression"}, {"measurement": "MAO-B inhibition (in words)", "setting": "recombinant human MAO-B", "result": "potently inhibited"}, {"measurement": "LPS-elevated ALT level", "setting": "LPS-induced HepG2 cells [2]", "result": "significant suppression"}, {"measurement": "LPS-elevated AST level", "setting": "LPS-induced HepG2 cells [2]", "result": "significant suppression"}]}
{"molecule": "Cn1c(-c2ccc3c(c2)OCO3)cc(=O)c2ccccc21", "note": "[graveoline]", "values": [{"measurement": "hepatoprotective effect", "setting": "liver injury", "result": "attenuates liver injury"}]}
{"molecule": "C#CCN(C)CCCOc1ccc(Cl)cc1Cl", "note": "[clorgyline]", "values": [{"measurement": "MAO inhibition", "setting": "MAO", "result": "> 99", "unit": "%"}]}
{"molecule": "O=Cc1cc2ccc(=O)oc2cc1O", "note": "[6-formyl umbelliferone]", "values": [{"measurement": "IC50", "setting": "hMAO-B", "result": 15.3, "unit": "µM"}, {"measurement": "isoform selectivity (in words)", "setting": "hMAO-A", "result": "selectivity for hMAO-A versus hMAO-B"}, {"measurement": "IC50", "setting": "hMAO-A", "result": 3.23, "unit": "µM"}, {"measurement": "mode of hMAO inhibition", "setting": "hMAO", "result": "competitive"}]}
